Reference: PMC12519263, “Antifibrotic Efficacy of a Nintedanib–Peptide Conjugate and Diagnostic Potential of a Fluorescent Companion Probe Targeting αVβ6 Integrin in Idiopathic Pulmonary Fibrosis” (ACS Pharmacology & Translational Science, 2025)
Values belong to the molecule of their own block, whether it stands above or below them. Numbered stars: 1 amine (or outer) side, 2 acyl side, 3 side chain; on linkers, the order of the positions; unused ones are H or OH. Square brackets hold non-standard residues; d marks the D form. Peptide text beside a SMILES is read from it. X1 = [N-]=[N+]=NCCCCN1C[C@@H](N[*:1])C[C@H]1C(=O)[*:2]

What was measured:
[1] = In vitro stability in human plasma (LC-MS/MS); format: in vitro ADME; details: 80% v/v human plasma in 100 mM PBS pH 7.4, 37 °C, plasma pre-incubated 10 min, 1% DMSO, LC-MS/MS (MRM, ESI+), vs t = 0, mean ± SD (n=3), read-out: % Compound at 6h human plasma
Protocol: (§1) 2. In vitro plasma stability of compounds 1 and 2
(§2) Stability of compounds 1 and 2 in mouse and human plasma was evaluated by incubating 5 μL of a 100 µM solution of each compound in DMSO with 400 μL of plasma and 95 μL of 100 mM phosphate buffered saline (PBS) pH 7.4 (final compound concentration: 1 µM; final DMSO concentration: 1%). Plasma samples were pre-incubated at 37 °C for 10 min before adding the compound. At different time points, an aliquot was withdrawn from each sample and deproteinized by addition of 100 μL of ice-cold acetonitrile containing the structurally related compound 13 as internal standard (Table S1). After a centrifugation step (14,000 g, 10 min, 4 °C), the supernatants were analyzed by LC-MS/MS. A multiple reaction monitoring (MRM) acquisition method in positive ion mode (ESI+) was set up to monitor the remaining percentages of test compound at different time points, if compared to time t = 0.
(§3) LC-MS/MS Analytical Method. A Thermo TSQ Quantum triple-quadrupole mass spectrometer (Thermo Italia, Milan, Italy) equipped with a heated electrospray (H-ESI) ion source and coupled to a Thermo Accela UHPLC system was employed for LC-MS/MS data acquisition and analysis. The LC separation occurred on a Waters XSelect HSS T3 column (3.5 μm, 2.1 × 100 mm; Waters, Milford, USA) at room temperature. […]

[2] = In vitro stability in mouse plasma (LC-MS/MS); format: in vitro ADME; details: 80% v/v mouse plasma in 100 mM PBS pH 7.4, 37 °C, plasma pre-incubated 10 min, 1% DMSO, LC-MS/MS (MRM, ESI+), vs t = 0, mean ± SD (n=3), read-out: % Compound at 6h mouse plasma
Protocol: as §1, §2, §3

[3] = target: soluble human αvβ6 integrin (human) (UniProt P06756); assay: ELISA; competitive solid-phase binding assay: LAP (0.4 μg/mL) coated in carbonate buffer pH 9.6 overnight at 4 °C, blocked with TS-B buffer (20 mM Tris–HCl, 150 mM NaCl, 1 mM CaCl2, 1 mM MgCl2, 1 mM MnCl2, pH 7.5, 1% BSA); soluble human αvβ6 (0.25 μg/mL) incubated with compounds (10^-5–10^-10 M) in the coated wells 1 h at room temperature; bound integrin detected with anti-αv antibody and HRP secondary
human recombinant VEGFR = system: human recombinant VEGFR; parameters: method as in previously reported, see ref (number not given); details: ref previously reported, see ref (number not given); read-out: IC50, TKI activity against human recombinant VEGFR; cited from earlier work
[4] = system: p-ERK1/2 in hIPF fibroblasts; assay: Western blot of ERK1/2 phosphorylation; format: cell-based, human; details: 24 h, 5 μM, Western blot densitometry normalized to vinculin, vs untreated, three independent experiments
Text: (§4) The effect of treatment with compound 1 on patient-derived hIPF fibroblasts was next investigated by evaluating the inhibition of both TGF-β1 production and ERK1/2 phosphorylation. It is important to note that TGF-β1 expression is usually evaluated in cultured cells in secreted form in their culture medium (soluble and active form of TGF-β1 (13 kDa)). We reasoned that the evaluation of the intracellular form of full-length TGF-β1 (44 kDa) in hIPF fibroblasts might directly reflect the potency of the conjugated compound to inhibit TGF-β1 production. Evaluation of these fibrosis-related hallmarks would have been indicative of the downstream effect of our conjugate on IPF-related human cell signaling promoted by either the integrin ligand, the nintedanib component, or both. […]
(§5) The protein content in each sample was quantified using the Bradford colorimetric assay, and 56 μg of total proteins was prepared for SDS-PAGE analysis using Bolt LDS Sample Buffer 4× (Novex, Life Technologies) with 10% Bolt Sample Reducing Agent 10× (Novex, Life Technologies). […] Each band detected was quantified by densitometric analysis, using ImageJ software, and normalized against vinculin expression as the housekeeper protein.

hIPF fibroblasts = assay: Cell internalization by flow cytometry (intrinsic nintedanib fluorescence); format: cell-based, human; details: 24 h, 5 μM, flow cytometry λex 405 nm, BV421 channel, one representative result
Protocol: Cells were exposed for 24 h for treatment with compound 1 or nintedanib at 5 μM concentration; next, the percentage of positive cells of different treatment populations was determined and compared with the fluorescence intensity of untreated (UT) cells.
The integrin-mediated cell internalization of conjugate 1 and free nintedanib was determined by exploiting the intrinsic fluorescence of the nintedanib moiety (λex = 405 nm; λem = 480 nm). Intracellular fluorescence activity of 5 μM nintedanib was measured by flow cytometry. Fluorescence emission was analyzed using the BD Brilliant Violet 421 channel (450/50 nm bandpass filter) for the 405 nm laser.
Briefly, 150,000 cells were seeded in T25 flasks in complete culture medium and treated for 24 h with nintedanib or compound 1 at 5 μM concentration. After incubation, the cells were washed with PBS, gently detached using trypsin–EDTA solution, and resuspended in complete medium. After centrifugation (1500 rpm for 5 min), the cells were washed in PBS and resuspended in 300 μL of PBS for FACS analysis.

[5] = system: BLM-induced lung fibrosis; assay: Antifibrotic therapy in BLM-induced lung fibrosis mouse model (Study #2; μCT, histology); format: in vivo, C57Bl/6 mice; details: day 14 to 21, BLM mice; for severe fibrotic lesions (Ashcroft score, histology): left lobe, Picrosirius red, day 21, vs BLM
Text: After triple BLM instillation, all mice underwent μCT imaging on days 14 and 21, indicating the beginning and the end of the therapeutic window. , On day 14, the BLM-treated mice were divided into 5 groups, namely, Vehicle, NINT (23), NINT (94), PepNIN 1 (23), and Ligand 11 (23). […] The two remaining groups received the NINT (23) (nintedanib at 23 μmol/kg) and ligand 11 (23) (cyclopeptide ligand 11 at 23 μmol/kg) alone to investigate the therapeutic effect of each single component at this reduced dosage.
Bleomycin hydrochloride (Baxter) dissolved in 50 μL of saline was administered via a triple oropharyngeal aspiration (OA) under 2.5% isoflurane anesthesia to induce pulmonary fibrosis, as previously described. , The negative control group received a triple OA with saline (Saline).
In Study #2, BLM-treated mice (29 of 35 mice) on day 14 were divided into 5 different groups (reported in Table S2, Supporting Information) and were daily treated with nintedanib (94 or 23 μmol/kg), PepNIN 1 (23 μmol/kg), integrin ligand 11 (23 μmol/kg), or vehicle (1% Tween 80 in ultrapure water) by oral gavage from day 14 to day 21. All mice were longitudinally monitored by μCT imaging on days 14 and 21, and subsequently they were sacrificed for the histological assessment of lung fibrosis.
Mice thoraxes were imaged using a Quantum GX Micro-CT scanner (Revvity, Inc. Waltham, MA) after anesthetic induction and maintenance with 2% isoflurane. Images were taken in free-breathing mice using the following parameters: an X-ray tube current of 88 A, an X-ray tube voltage of 90 kV, and a total angle of 360° over a scan period of 4 min. The detector was 736 × 588 pixels with a size of 0.2 mm. The reconstruction method automatically trimmed the pixels to produce a projection size of 512 × 512 pixels. Binning was not employed. Each animal was placed supine on the scanner bed, with its chest adjusted to fit inside the field of view. To detect the breathing pattern, pictures were captured in “high-speed” mode, allowing the recording of the gating signal through a region of interest (ROI) positioned over the animals’ diaphragm. Projections were collected in “list mode” (labeled as “00000”, “00001”, ···, “14′687”) during a single continuous gantry rotation. […] The acquisition duration was 4 min, and around 900 projections (both P01 and P02) were automatically selected and used for the reconstruction of the two data sets, with the option to change the thresholds to select the most suited projections. However, our highly controlled anesthetic protocol , enabled us to maintain constant breathing rates (100–120 bpm). Two stacks of 512 cross-sectional images were automatically reconstructed into two 3D data sets corresponding to the inspiratory and expiratory breathing phases (end-inspiration, P01; end-expiration, P02), with a 50 μm isotropic reconstructed voxel size, using a filtered back-projection algorithm with a Ram-Lak filter.

[6] = system: TGF-β1 in hIPF fibroblasts; assay: Western blot of intracellular TGF-β1 (44 kDa) expression; format: cell-based, human; details: 24 h, 5 μM, Western blot densitometry normalized to vinculin, vs untreated, three independent experiments
Text: as §4, §5

human αvβ6 integrin = target: T1, human αvβ6 integrin (Homo sapiens, UniProt P06756+P18564, DEL708-788); assay: Competitive solid-phase αvβ6 integrin binding assay to coated LAP; details: competitive solid-phase binding to coated LAP (0.4 μg/mL); soluble human αvβ6 0.25 μg/mL; compounds 10^-5–10^-10 M, 1 h room temperature; absorbance 450 nm; mean ± SD of three independent experiments in triplicate
T1 construct: purchased R&D Systems
Protocol: The ability of conjugate 1 to bind to the human, isolated αvβ6 integrin receptor was evaluated by a competitive solid-phase ligand-binding assay on purified αvβ6 integrin in the presence of increasing concentrations (10^–10–10^–5 M) of 1. To better evaluate the impact of the linker and nintedanib moieties on the binding capability of 1, the results (Table ) were compared to those obtained for free cyclopeptide 3 and previously reported cyclopeptide 11 (the deprotected version of prot-11, Scheme ). Binding curves are provided in Figure S3, Supporting Information.
The affinity of integrin ligands 1, 3, and 11 was determined by the solid-phase binding assay using soluble αvβ6 integrin and coated LAP, according to a previously reported protocol. Flat-bottom 96-well plates (Corning Costar, Segrate, Milan, Italy) were coated by passive adsorption with LAP (TGF-β; 0.4 μg/mL; R&D Systems) in carbonate buffer (15 mM Na2CO3 and 35 mM NaHCO3, pH 9.6; 100 μL/well) overnight at 4 °C. After three washes with PBS-T buffer (phosphate-buffered saline–Tween20, 137 mM NaCl, 2.7 mM KCl, 10 mM Na2HPO4, 2 mM KH2PO4, and 0.01% Tween20, pH 7.4; 200 μL/well), wells were blocked with TS-B buffer (Tris–saline/BSA buffer; 20 mM Tris–HCl, 150 mM NaCl, 1 mM CaCl2, 1 mM MgCl2, 1 mM MnCl2, pH 7.5, and 1% BSA; 150 μL/well) for 1 h at room temperature. After washing the assay plate three times with PBS-T (200 μL/well), soluble human αvβ6 integrin (0.25 μg/mL, R&D Systems) was incubated with compounds and tested at different concentrations (10^–5–10^–10 M), in the coated wells for 1 h at room temperature. The plate was washed three times with PBS-T buffer, and anti-αv primary antibody (1:500 dilution, 100 μL/well; mouse antihuman MAB1978, Merck Life Science, Milan, Italy) was added and incubated for 1 h at room temperature. […] The reaction was stopped with 1 M H2SO4 (50 μL/well), and the absorbance was measured at 450 nm with an EnSpire Multimode Plate Reader (PerkinElmer, Waltham, MA). […] Data analysis and IC50 affinity values were calculated using GraphPad Prism 10.4.1 (GraphPad Software, San Diego, CA). […]

[7] = 94 μmol/kg oral gavage daily, vs BLM group

Molecule: CC(C)C[C@@H]1NC(=O)[C@H](CC(=O)O)NC(=O)CNC(=O)[C@H](CCCNC(=N)N)NC(=O)[C@H](CC(C)C)NC(=O)[C@@H]2C[C@@H](CN2C(=O)CCCCCNC(=O)CCc2ccc(OC3=C(/C=C/C4=[N+](CCC[N+](C)(C)C)c5ccc(S(=O)(=O)O)cc5C4(C)C)CCC/C3=C\C=C3\N(CCC[N+](C)(C)C)c4ccc(S(=O)(=O)O)cc4C3(C)C)cc2)NC1=O [compound 2]
remaining at 6 h [1]: 51 ± 3% | remaining at 6 h [2]: 59 ± 3%

IC50 [3]: 24.7 nM
Molecule: c(phg-isoDGRk) (peptide)

Molecule: COC(=O)c1ccc2c(c1)NC(=O)/C2=C(\Nc1ccc(N(C)C(=O)CN2CCN(C)CC2)cc1)c1ccccc1 [nintedanib]
IC50 (human recombinant VEGFR): 7 nM | ERK1/2 phosphorylation [4]: reduced | percentage of positive cells (internalization) (hIPF fibroblasts): about 94% | percentage of positive cells (internalization) (hIPF fibroblasts; listed as NINT): 93.8% | severe fibrotic lesions (Ashcroft score, histology) ([5]; 23 μmol/kg oral gavage daily): had no effects | lung aeration by longitudinal μCT (%GasExpiration, poorly aerated tissue) ([5]; 23 μmol/kg oral gavage daily, vs BLM group): tendency toward disease progression | severe fibrotic lesions (Ashcroft score, histology) ([5]; 94 μmol/kg oral gavage daily): clearly reduced severe fibrotic lesions | CT biomarkers adjusted to own basal value on day 14 [5, 7]: statistically significant improvement | lung aeration by longitudinal μCT (%GasExpiration, poorly aerated tissue) [5, 7]: significantly improved lung aeration | expression of intracellular form of TGF-β1 (44 kDa) [6]: reduced

IC50 (human αvβ6 integrin): 1.95 ± 0.16 nM
Molecule: COC(=O)c1ccc2c(c1)NC(=O)/C2=C(\Nc1ccc(N(C)C(=O)CN2CCN(CCOCCOCCOCc3cn(CCCCN4C[C@@H]5C[C@H]4C(=O)N[C@@H](CC(C)C)C(=O)N[C@@H](CCCNC(=N)N)C(=O)NCC(=O)N[C@@H](CC(=O)O)C(=O)N[C@@H](CC(C)C)C(=O)N5)nn3)CC2)cc1)c1ccccc1 [compound 1]
remaining at 6 h [1]: 96 ± 5% | remaining at 6 h [2]: 95 ± 4%

IC50 (human αvβ6 integrin): 4.52 ± 0.68 nM
Molecule: CC(C)C[C@@H]1NC(=O)[C@H](CC(=O)O)NC(=O)CNC(=O)[C@H](CCCNC(=N)N)NC(=O)[C@H](CC(C)C)NC(=O)[C@@H]2C[C@@H](CN2CCCCN=[N+]=[N-])NC1=O [compound 3] (cyclo(RGDL[X1]L))

IC50 (human αvβ6 integrin): 30.3 ± 7.6 nM
Molecule: CC(C)C[C@@H]1NC(=O)[C@H](CC(=O)O)NC(=O)CNC(=O)[C@H](CCCNC(=N)N)NC(=O)[C@H](CC(C)C)NC(=O)[C@@H]2C[C@@H](CN2C(=O)CCCCCN=[N+]=[N-])NC1=O [compound 11]
